# Assay results from article PMC5572576 (The Lancet. Oncology, 2017).
# pIC50: −log10 of the molar value. “And” between values parts separate entries of the source, which are not always exact repeats. Equal entries are not always repeated.
# Experiments:
# [1] = target: anaplastic lymphoma kinase (ALK); details: panel of 78 kinases; cited from earlier work
# [2] = Plasma pharmacokinetics after oral once-daily dosing; type: in vivo, human; details: oral daily dosing 20–450 mg
# [3] = tested on: FLT3-ITD receptors in Molm14 cells; assay: Ex vivo FLT3 plasma inhibitory activity; type: cell-based; details: by Day 8, majority of patients receiving ≥80 mg
# AXL = details: panel of 78 kinases; cited from earlier work
# patients with R/R AML = assay: Phase 1/2 study, antileukemic response; type: in vivo, human; details: for Median overall survival / Median response duration: (95% CI)
# FLT3 = details: cell-based assays; cited from earlier work
# c-Kit = details: cell-based assays; cited from earlier work
# [4] = target: leukocyte receptor tyrosine kinase (LTK); details: panel of 78 kinases; cited from earlier work
# [5] = FLT3mut+ receiving ≥80mg/d (n=169)
structure (smiles),measurement,setting,value
CCc1nc(C(N)=O)c(Nc2ccc(N3CCC(N4CCN(C)CC4)CC3)c(OC)c2)nc1NC1CCOCC1 [gilteritinib],kinase inhibition,[1],strong inhibitor
same,Steady state plasma levels reached,[2],15 treatment Day
same,FLT3 phosphorylation inhibition,[3],≥ 90%
same,kinase inhibition,AXL,strong inhibitor
same,CRc,patients with R/R AML; FAS (n=249),"75 (30% [25, 36]) n (% [95% CI])"
same,ORR,patients with R/R AML; FAS (n=249),"100 (40% [34, 47]) n (% [95% CI])"
same,Median overall survival,patients with R/R AML; FAS (n=249),"25 (20, 30) weeks"
same,CRc,patients with R/R AML; FLT3WT (n=58),"5 (9% [3, 19]) n (% [95% CI])"
same,Median overall survival,patients with R/R AML; FLT3WT (n=58),"17 (11, 21) weeks"
same,CR,patients with R/R AML; FLT3mut+ all patients (n=191),"18 (9% [6, 15]) n (% [95% CI])"
same,CRc,patients with R/R AML; FLT3mut+ all patients (n=191),"70 (37% [30, 44]) n (% [95% CI])"
same,CRi,patients with R/R AML; FLT3mut+ all patients (n=191),"42 (22% [16, 29]) n (% [95% CI])"
same,CRp,patients with R/R AML; FLT3mut+ all patients (n=191),"10 (5% [3, 9]) n (% [95% CI])"
same,ORR,patients with R/R AML; FLT3mut+ all patients (n=191),"93 (49% [41, 56]) n (% [95% CI])"
same,PR,patients with R/R AML; FLT3mut+ all patients (n=191),"23 (12% [8, 18]) n (% [95% CI])"
same,Median overall survival,patients with R/R AML; FLT3mut+ all patients (n=191),"30 (23, 33) weeks"
same,Transplant rate,patients with R/R AML; FLT3mut+ receiving ≥80 mg/d,19%
same,CR,patients with R/R AML; [5],"18 (11% [6, 16]) n (% [95% CI])"
same,CRi,patients with R/R AML; [5],"41 (24% [18, 31]) n (% [95% CI])"
same,CRp,patients with R/R AML; [5],"10 (6% [3, 11]) n (% [95% CI])"
same,ORR,patients with R/R AML; [5],"88 (52% [44, 60]) n (% [95% CI])"
same,PR,patients with R/R AML; [5],"19 (11% [7, 17]) n (% [95% CI])"
same,Median overall survival,patients with R/R AML; [5],"31 weeks and 31 (24, 59) weeks"
same,Median OS,patients with R/R AML; FLT3mut+ responders who underwent HSCT (n=32),47 weeks
same,Transplant rate,patients with R/R AML; FLT3mut+ who achieved PR or better,34%
same,Transplant rate,patients with R/R AML; FLT3mut+ with CRc and no prior transplant (n=47),47%
same,Transplant rate,patients with R/R AML; entire FLT3mut+ population,19%
same,pIC50,c-Kit,6.99
same,kinase inhibition,[4],strong inhibitor
